Test results: the NIST ThermoML archive (doi:10.1016/j.fluid.2012.06.014)

Conditions: for viscosity / mass density: 101.33 kPa, Liquid; for viscosity: Capillary tube (Ostwald / Ubbelohde) method; for mass density: Vibrating tube method

CCCCCCn1cc[n+](C)c1.N#C[B-](C#N)(C#N)C#N [1-hexyl-3-methylimidazolium tetracyanoborate]
Conditions | mass density [kg/m3] | viscosity [mPa·s]
293.15 K | 993.4 | 66.61
298.15 K | 989.8 | 49.8
303.15 K | 986.2 | 38.92
308.15 K | 982.7 | 31.04
313.15 K | 979.1 | 25.2
318.15 K | 975.6 | 20.8
323.15 K | 972.1 | 17.41
328.14 K | 968.6 | 14.76
333.14 K | 965.2 | 12.66
338.14 K | 961.7 | 10.97
343.14 K | 958.3 | 9.584
348.14 K | 954.9 | 8.445
353.15 K | 951.5 | 7.497
358.14 K | 948.1 | 6.701
363.14 K | 944.8 | 6.026

Conditions | surface tension liquid-gas [mN/m]
298.15 K, Pendant drop shape | 41.1
